# Reference: patent US20140343104A1, “OSTEOGENESIS PROMOTER AND USE THEREOF” (National University Corporation Nagoya University, priority 2011, published 2014)
# Columns and labels:
# [1] = tested on: P1 promoter region of the human Runx2 gene; experiment: RUNX2 P1 promoter luciferase reporter assay in BMP-2-induced C3H10T1/2 stable expression strain (primary, secondary, tertiary screening); type: cell-based; settings: five times of screening (N=6/time); average of 5 times or even at once
# From the text: Existing drugs which increase the promoter activity of the transcription factor Runx2 were exhaustively searched by luciferase assay. Firstly, the P1 promoter region of the human Runx2 gene was inserted into the multiple cloning site of the pGL4 luciferase reporter vector (Promega K.K.) (pGL4.10 vector). The pGL4.10 vector was transfected into the undifferentiated mouse mesenchymal cell line C3H10T1/2, and selectively cultured on a G418-containing medium, thereby establishing the stable expression strain. The cells were seeded on a 96-well (day 1), and human BMP-2 was added to each well on day 2, thereby inducing differentiation into osteoblasts. On the following day, the test compounds (10 μM) composing Prestwick Chemical Library (registered trademark) (Prestwick Chemical Ltd.) were added, and the cells were collected 24 hours after, and subjected to luciferase assay.
# In addition to the compounds which made the reporter activity of luciferase (average of 5 times) 1.5 times that of the control, those made the activity 1.5 times than that of the control even at once were selected.
# luciferase protein = experiment: double luciferase assay, pGL4.10 basic vector and phRL vector cotransfected into C3H10T1/2 cells; type: cell-based; settings: pGL4.10 [luc2/SV40] basic vector and phRL [hRluc/TK] vector
# Description: In order to exclude the possibility of the potential agent to increase the enzymatic activity of luciferase protein, the pGL4. 10 basic vector (pGL4.10 [luc2/SV40] basic vector) and phRLvector (phRL [hRluc/TK] vector) were cotransfected into the C3H10T1/2 cells, the potential agents were individually added, and double luciferase assay was performed.
# Runx2 gene [2] = experiment: Runx2 gene expression by quantitative PCR in HOS cells; type: cell-based, human; settings: PPI cultured for 24 hours, FIG. 1
# Description: (§1) Human osteogenic sarcoma cells (HOSs) and the C3H10T1/2 cells were used in the experiment. Firstly, the cells (HOS or C3H10T1/2) were seeded on a 12-well plate (day 1). When the C3H10T1/2 cells were used, the human BMP-2 was added to each well on the following day. On day 3, PPI (rabeprazole or lansoprazole) was added and cultured for 24 hours, and the cells were collected. Total RNAs were prepared from the collected cells, and the expression of the Runx2 gene was analyzed by the quantitative PCR method.
# Runx2 gene [3] = experiment: Runx2 gene expression by quantitative PCR in BMP-2-induced C3H10T1/2 cells; type: cell-based, mouse; settings: C3H10T1/2 cells differentiated by BMP-2; PPI cultured for 24 hours; FIG. 2
# Description: as §1
# Runx2 protein [4] = experiment: Runx2 protein expression by Western blot in HOS cells; type: cell-based, human; settings: 48 hours and 78 hours after the addition of PPI, relative to Gapdh, FIGS. 3 and 4
# Description: as §1
# (§2) Using the HOS cells and the C3H10T1/2 cells cultured in the same manner as in 4-1, and the expression level of the Runx2 protein and the ALP activity which is the index of bone differentiation were evaluated over time. The expression level of the Runx2 protein was evaluated by the Western blot test, and the ALP activity was measured by the ELISA method.
# Runx2 protein [5] = experiment: Runx2 protein expression by Western blot in BMP-2-induced C3H10T1/2 cells; type: cell-based, mouse; settings: C3H10T1/2 cells differentiated by BMP-2; 48 hours and 78 hours after the addition of PPI; relative to Gapdh; FIGS. 5 and 6
# Description: as §1, §2
# [6] = tested on: alkaline phosphatase (ALP) activity; experiment: ALP activity by ELISA in HOS cells; type: cell-based, human; settings: day 6 after the addition of PPI, FIG. 7
# Description: as §1, §2
# [7] = tested on: alkaline phosphatase (ALP) activity; experiment: ALP activity by ELISA in BMP-2-induced C3H10T1/2 cells; type: cell-based, mouse; settings: day 5 after the addition of PPI, FIG. 8
# Description: as §1, §2
# Runx2 gene [8] = experiment: Runx2 gene expression in rat cultured bone marrow mesenchymal cells; type: cell-based; settings: bone-inducing media, P1, P2, P3, 24 hours after the addition of PPI, FIG. 9
# Description: Mesenchymal cells were prepared from a rat bone marrow solution, and cultured (cultured bone marrow mesenchymal cells). Subsequently, the cells were subcultivated (P1, P2, and P3) in bone-inducing media (dexamethasone, β-glycerophosphoric acid, and ascorbic acid were added the culture media). PPI was added when each of the P1, P2, and P3 reached confluent. The cells were collected 24 hours after the addition of PPI, and the expression of the Runx2 gene was analyzed in the same manner as in 4-1.
# Runx2 gene [9] = experiment: Runx2 gene expression in human bone marrow mesenchymal stem cells; type: cell-based; settings: PPI-containing bone-inducing media, P0, P1, P2, FIG. 10
# Description: On the other hand, the human bone marrow mesenchymal stem cells (POIETICS (registered trademark), Lonza Ltd.) were subjected to primary culture (P0) and subcultivation (P1, P2) in the PPI-containing bone-inducing media (culture media containing PPI, dexamethasone, β-glycerophosphoric acid, and ascorbic acid). The bone-inducing medium was replaced every three days. The cells were collected when each of P0, P1, and P2 reached confluent, and the expression of the Runx2 gene was analyzed in the same manner as in 4-1.
# rat femur defect model = experiment: rat femur defect model, soft X-ray; type: in vivo; settings: SD rat femur 3 mm defect, ad libitum oral administration
# From the text: The left hind femur of an SD rat (male, 9 weeks old) was exposed by anterolateral approach, and an external fixator was installed. The diaphysis was cut by an oscillating saw, (defect amount 3 mm), and the bone was elongated in a single stage, and used as a bone defect model (defect group N=6, control group N=6). Lansoprazole was given to the bone defect model by ad libitum oral administration (about 10 to 20 times the usual human dose), and the bone defect part was photographed periodically by soft X-ray. In addition, the body weight and drinking water amount were periodically measured.
# [10] = tested on: P1 promoter region of the human Runx2 gene; experiment: RUNX2 P1 promoter luciferase reporter assay in BMP-2-induced C3H10T1/2 stable expression strain (primary, secondary, tertiary screening); type: cell-based; settings: three times of screening (N=6/time) at 8 levels of concentration
secondary screening: reporter activity of luciferase 1.5 times that of the control [1],tertiary screening: concentration dependency of the promotion of RUNX2 promoter activity [10],SMILES,specificity of RUNX2 promoter promotion versus increase of luciferase activity (luciferase protein),further results
selected,–,"O=C(O)CCNC(=O)c1ccc(/N=N/c2ccc(O)c(C(=O)O)c2)cc1 [balsalazide sodium, disodium (3Z)-3-[[4-(2-carboxylatoethylcarbamoyl)phenyl]hydrazinylidene]-6-oxocyclohexa-1,4-diene-1-carboxylate dehydrate]",–,–
selected,–,"CC(C(=O)O)c1ccc(N2Cc3ccccc3C2=O)cc1 (stereo not shown) [indoprofen, 2-[4-(3-oxo-1H-isoindol-2-yl)phenyl]propanoic acid]",–,–
selected,concentration dependency,"Cc1c(OCC(F)(F)F)ccnc1C[S+]([O-])c1nc2ccccc2[nH]1 (stereo not shown) [lansoprazole, 2-[[3-methyl-4-(2,2,2-trifluoroethoxy)pyridin-2-yl]methylsulfinyl]-1H-benzimidazole]",specifically promote the RUNX2 promoter activity,"induction of expression of the Runx2 gene (Runx2 gene [2]): concentration-dependent activity of inducing the expression of the Runx2 gene; induction of expression of the Runx2 gene (Runx2 gene [3]): concentration-dependent activity of inducing the expression of the Runx2 gene; Runx2 protein expression level (Runx2 protein [4]): expression inducing effect; Runx2 protein expression level (Runx2 protein [5]): expression inducing effect; ALP activity [6]: increase effect; ALP activity [7]: increase effect; induction of the expression of the Runx2 gene (Runx2 gene [8]): expression inducing effect; induction of the expression of the Runx2 gene (Runx2 gene [9]): expression inducing effect; osteogenesis promoting effect (rat femur defect model): marked osteogenesis promoting effect; animals showing good osteogenesis (bone adhesion on soft X-ray) (rat femur defect model; about 10 to 20 times the usual human dose, 12 weeks, N=6): 3/6"
selected,concentration dependency,"Cc1oncc1C(=O)Nc1ccc(C(F)(F)F)cc1 [leflunomide, 5-methyl-N-[4-(trifluoromethyl)phenyl]-1,2-oxazole-4-carboxamide]",specifically promote the RUNX2 promoter activity,–
selected,–,"O=c1cc(-c2ccc(O)c(O)c2)oc2cc(O)cc(O)c12 [luteolin, 2-(3,4-dihydroxyphenyl)-5,7-dihydroxychromen-4-one]",–,–
selected,–,"COC(=O)Nc1nc2ccc(SC(C)C)cc2[nH]1 [methiazole, methyl n-(6-propan-2-ylsulfanyl-1H-benzimidazol-2-yl) carbamate]",–,–
selected,concentration dependency,"COc1ccc2cc(CCC(C)=O)ccc2c1 [nabumetone, 4-(6-methoxynaphthalen-2-yl)butan-2-one]",specifically promote the RUNX2 promoter activity,–
selected,–,"Cl.Nc1ccc(N=Nc2ccccc2)c(N)n1 [phenazopyridine hydrochloride, 3-phenyldiazenylpyridine-2,6-diamine hydrochloride]",–,–
selected,concentration dependency,"COCCCOc1ccnc(C[S+]([O-])c2nc3ccccc3[nH]2)c1C (stereo not shown) [rabeprazole, 2-[[4-(3-methoxypropoxy)-3-methylpyridin-2-yl]methylsulfinyl]-1H-benzimidazole]",specifically promote the RUNX2 promoter activity,induction of expression of the Runx2 gene (Runx2 gene [2]): concentration-dependent activity of inducing the expression of the Runx2 gene; induction of expression of the Runx2 gene (Runx2 gene [3]): concentration-dependent activity of inducing the expression of the Runx2 gene; Runx2 protein expression level (Runx2 protein [4]): expression inducing effect; Runx2 protein expression level (Runx2 protein [5]): expression inducing effect; ALP activity [6]: increase effect; ALP activity [7]: increase effect; induction of the expression of the Runx2 gene (Runx2 gene [8]): expression inducing effect; induction of the expression of the Runx2 gene (Runx2 gene [9]): expression inducing effect
selected,–,"c1ccc2[nH]c(-c3cscn3)nc2c1 [tiabendazole, 4-(1H-benzimidazol-2-yl)-1,3-thiazole]",–,–
selected,concentration dependency,"CC(C(=O)O)c1ccc(C(=O)c2ccccc2)s1 (stereo not shown) [tiaprofenic acid, 2-(5-benzoylthiophen-2-yl)propanoic acid]",specifically promote the RUNX2 promoter activity,–
selected,concentration dependency,"COc1ccc(/C=C/C(=O)Nc2ccccc2C(=O)O)cc1OC [tranilast, 2-[[(E)-3-(3,4-dimethoxyphenyl)prop-2-enoyl]amino]benzoic acid]",slightly increase the luciferase activity,–

SMILES,secondary screening: reporter activity of luciferase 1.5 times that of the control [1],tertiary screening: concentration dependency of the promotion of RUNX2 promoter activity [10],specificity of RUNX2 promoter promotion versus increase of luciferase activity (luciferase protein),further results
"CCCSc1ccc2nc(NC(=O)OC)[nH]c2c1 [albendazole, methyl n-(6-propylsulfanyl-1H-benzimidazol-2-yl) carbamate]",selected,–,–,–
